In ChEMBL document CHEMBL3991601, “The target landscape of clinical kinase drugs” (Science, 2017) one finds Kd data, which are given here for 18 compounds.

The source made the active and inactive calls. Rule as the data show it: actives have a measured Kd and inactives only a lower limit.

Broadly, the Kd is the free concentration of one partner at which half of the binding sites on the other are occupied at equilibrium, for simple one-to-one binding.

Experiment [1] addresses T1, Discoidin domain-containing receptor 2 (Homo sapiens, UniProt Q16832).
T1 sequence (Q16832 whole entry): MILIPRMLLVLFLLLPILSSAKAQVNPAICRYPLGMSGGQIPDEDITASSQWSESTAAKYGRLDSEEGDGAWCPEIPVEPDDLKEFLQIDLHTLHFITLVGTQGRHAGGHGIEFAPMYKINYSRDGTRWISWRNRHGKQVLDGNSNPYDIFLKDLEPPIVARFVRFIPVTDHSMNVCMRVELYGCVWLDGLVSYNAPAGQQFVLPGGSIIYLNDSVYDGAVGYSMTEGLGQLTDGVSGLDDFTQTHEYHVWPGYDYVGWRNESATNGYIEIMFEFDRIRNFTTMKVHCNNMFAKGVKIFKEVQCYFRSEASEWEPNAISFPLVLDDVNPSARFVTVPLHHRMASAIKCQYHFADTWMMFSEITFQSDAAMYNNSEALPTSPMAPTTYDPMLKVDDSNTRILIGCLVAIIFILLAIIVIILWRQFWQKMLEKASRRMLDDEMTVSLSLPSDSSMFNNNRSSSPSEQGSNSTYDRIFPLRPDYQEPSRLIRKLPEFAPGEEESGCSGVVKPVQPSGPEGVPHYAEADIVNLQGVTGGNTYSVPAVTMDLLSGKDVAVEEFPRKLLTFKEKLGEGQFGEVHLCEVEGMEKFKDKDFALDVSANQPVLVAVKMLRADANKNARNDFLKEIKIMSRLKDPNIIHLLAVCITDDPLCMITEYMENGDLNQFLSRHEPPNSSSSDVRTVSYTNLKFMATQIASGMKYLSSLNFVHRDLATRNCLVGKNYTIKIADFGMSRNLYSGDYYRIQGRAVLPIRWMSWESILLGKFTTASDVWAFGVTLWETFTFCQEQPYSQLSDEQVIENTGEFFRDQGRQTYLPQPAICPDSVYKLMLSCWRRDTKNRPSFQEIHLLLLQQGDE

In another experiment the target is T2, Ephrin type-B receptor 6 (Homo sapiens, UniProt O15197).
T2 sequence (O15197 whole entry): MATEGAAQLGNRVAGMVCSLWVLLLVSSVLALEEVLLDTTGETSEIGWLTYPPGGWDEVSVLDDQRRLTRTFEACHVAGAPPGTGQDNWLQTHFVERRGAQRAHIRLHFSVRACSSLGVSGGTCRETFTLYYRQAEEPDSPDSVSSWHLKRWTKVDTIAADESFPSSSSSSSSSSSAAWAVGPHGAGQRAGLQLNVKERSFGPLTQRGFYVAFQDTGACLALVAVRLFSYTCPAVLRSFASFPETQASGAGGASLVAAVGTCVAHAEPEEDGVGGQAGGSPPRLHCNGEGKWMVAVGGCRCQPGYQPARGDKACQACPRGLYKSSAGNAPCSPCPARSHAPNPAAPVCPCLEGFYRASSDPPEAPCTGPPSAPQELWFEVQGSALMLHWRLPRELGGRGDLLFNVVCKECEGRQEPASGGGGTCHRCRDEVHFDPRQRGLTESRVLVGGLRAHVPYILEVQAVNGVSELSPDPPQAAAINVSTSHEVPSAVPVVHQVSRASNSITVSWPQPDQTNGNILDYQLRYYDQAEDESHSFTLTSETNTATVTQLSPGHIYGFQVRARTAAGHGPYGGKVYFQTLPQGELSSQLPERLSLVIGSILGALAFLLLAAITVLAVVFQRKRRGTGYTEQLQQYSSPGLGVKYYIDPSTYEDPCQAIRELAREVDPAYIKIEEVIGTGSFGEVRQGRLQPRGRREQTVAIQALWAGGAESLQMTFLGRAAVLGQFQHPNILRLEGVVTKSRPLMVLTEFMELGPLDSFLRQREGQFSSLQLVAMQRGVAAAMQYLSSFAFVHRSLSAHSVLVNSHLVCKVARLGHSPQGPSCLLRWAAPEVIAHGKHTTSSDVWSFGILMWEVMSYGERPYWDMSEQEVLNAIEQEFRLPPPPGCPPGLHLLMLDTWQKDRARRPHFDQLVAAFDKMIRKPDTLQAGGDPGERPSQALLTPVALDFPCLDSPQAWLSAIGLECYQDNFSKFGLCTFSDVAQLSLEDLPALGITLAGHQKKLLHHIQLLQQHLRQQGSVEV

The target in experiment [2] is T3, Receptor-type tyrosine-protein kinase FLT3 (Homo sapiens, UniProt P36888).
T3 sequence (P36888 whole entry): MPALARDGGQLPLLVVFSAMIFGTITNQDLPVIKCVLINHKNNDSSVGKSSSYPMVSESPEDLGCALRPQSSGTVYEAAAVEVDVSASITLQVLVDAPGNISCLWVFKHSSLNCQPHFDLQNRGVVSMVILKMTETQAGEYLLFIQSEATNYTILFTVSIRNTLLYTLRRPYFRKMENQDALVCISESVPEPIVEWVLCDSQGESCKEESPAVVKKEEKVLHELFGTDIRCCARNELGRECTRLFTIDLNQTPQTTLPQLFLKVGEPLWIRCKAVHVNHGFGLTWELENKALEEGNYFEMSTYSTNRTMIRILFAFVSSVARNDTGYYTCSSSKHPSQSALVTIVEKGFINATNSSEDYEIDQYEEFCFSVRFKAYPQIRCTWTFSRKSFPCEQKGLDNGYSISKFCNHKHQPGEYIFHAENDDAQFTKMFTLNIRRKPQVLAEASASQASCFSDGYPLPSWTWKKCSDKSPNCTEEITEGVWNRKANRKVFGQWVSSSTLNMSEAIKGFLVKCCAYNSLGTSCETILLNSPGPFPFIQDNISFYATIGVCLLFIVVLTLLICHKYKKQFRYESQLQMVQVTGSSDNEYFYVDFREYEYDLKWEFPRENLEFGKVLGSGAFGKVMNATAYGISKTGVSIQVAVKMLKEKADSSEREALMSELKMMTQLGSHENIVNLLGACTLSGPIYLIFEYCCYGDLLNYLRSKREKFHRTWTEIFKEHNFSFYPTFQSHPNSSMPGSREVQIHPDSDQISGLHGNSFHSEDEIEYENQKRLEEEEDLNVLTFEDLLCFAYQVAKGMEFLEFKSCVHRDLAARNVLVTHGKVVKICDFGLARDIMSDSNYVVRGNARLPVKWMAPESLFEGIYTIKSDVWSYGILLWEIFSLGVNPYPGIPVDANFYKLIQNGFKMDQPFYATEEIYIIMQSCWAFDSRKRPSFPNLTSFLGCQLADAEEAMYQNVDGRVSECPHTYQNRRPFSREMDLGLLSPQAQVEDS

In experiment [3] the target is Mitogen-activated protein kinase kinase kinase kinase 5 (Homo sapiens, UniProt Q9Y4K4).
Also: in the data inactive means no Kd found up to 30 µM.

Sequence of Mitogen-activated protein kinase kinase kinase kinase 5 (Q9Y4K4 whole entry): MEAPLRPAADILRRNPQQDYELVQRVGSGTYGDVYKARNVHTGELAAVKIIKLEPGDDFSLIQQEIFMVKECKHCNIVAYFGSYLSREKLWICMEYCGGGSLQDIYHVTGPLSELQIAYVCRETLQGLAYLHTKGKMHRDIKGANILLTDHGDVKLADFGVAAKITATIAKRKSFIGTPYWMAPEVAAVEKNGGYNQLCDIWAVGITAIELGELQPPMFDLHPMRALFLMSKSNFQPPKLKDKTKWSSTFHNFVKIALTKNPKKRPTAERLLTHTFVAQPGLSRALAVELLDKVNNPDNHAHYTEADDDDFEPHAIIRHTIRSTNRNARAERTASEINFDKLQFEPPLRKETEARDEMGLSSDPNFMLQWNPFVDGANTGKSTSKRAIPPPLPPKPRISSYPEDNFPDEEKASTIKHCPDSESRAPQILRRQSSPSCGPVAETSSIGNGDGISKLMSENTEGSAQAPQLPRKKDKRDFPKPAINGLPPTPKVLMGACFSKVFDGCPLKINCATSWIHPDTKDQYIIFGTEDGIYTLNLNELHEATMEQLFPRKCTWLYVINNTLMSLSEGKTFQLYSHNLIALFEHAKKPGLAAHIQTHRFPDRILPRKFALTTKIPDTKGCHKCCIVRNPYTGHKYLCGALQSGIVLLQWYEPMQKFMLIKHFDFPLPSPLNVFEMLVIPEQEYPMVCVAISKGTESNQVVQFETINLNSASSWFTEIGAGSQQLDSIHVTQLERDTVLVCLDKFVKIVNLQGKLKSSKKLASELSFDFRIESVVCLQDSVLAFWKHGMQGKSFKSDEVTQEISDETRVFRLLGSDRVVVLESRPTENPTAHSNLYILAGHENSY

With `CNC(=O)c1nn(C)c2c1C(C)(C)Cc1cnc(Nc3ccc(N4CCN(C)CC4)cc3)nc1-2` [MILCICLIB], the Kd is 4.29 µM (active) in experiment [1], > 30 µM (inactive) at Ephrin type-B receptor 6, 0.054 µM (active) in experiment [2] and 10 µM (active) in experiment [3].

As to `NC1(c2ccc(-c3nc4ccn5c(=O)[nH]nc5c4cc3-c3ccccc3)cc2)CCC1` [MK-2206], the Kd (in experiment [1]; on Ephrin type-B receptor 6; in experiment [2]; in experiment [3]) was > 30 µM (inactive) throughout.

With `CN(C[C@@H]1COCCO1)S(=O)(=O)Nc1ccc2ccc3ncc(-c4cnn(C)c4)cc3c(=O)c2c1` [MK-2461], the Kd (in experiment [1]; on Ephrin type-B receptor 6; in experiment [2]; in experiment [3]) was > 30 µM (inactive) throughout.

In the case of `Cn1cc(-c2cnc3ccc4ccc(CS(=O)(=O)NCc5ccccn5)cc4c(=O)c3c2)cn1` [MK-8033], the Kd (in experiment [1]; on Ephrin type-B receptor 6; in experiment [2]; in experiment [3]) was > 30 µM (inactive) in each case.

As to `FC(F)(F)c1ccc(/C=C/c2nc(COc3ccc(CCCCn4ccnn4)cc3)co2)cc1` [MUBRITINIB], the Kd (in experiment [1]; on Ephrin type-B receptor 6; in experiment [2]; in experiment [3]) was > 30 µM (inactive) in each case.

For `COc1ncc(-c2ccc3nccc(-c4ccnnc4)c3c2)cc1NS(=O)(=O)c1ccc(F)cc1F` [OMIPALISIB], the Kd (in experiment [1]; at Ephrin type-B receptor 6; in experiment [2]; in experiment [3]) was > 30 µM (inactive) throughout.

On to `CCOc1cc2ncc(C#N)c(Nc3ccc(F)c(Cl)c3)c2cc1NC(=O)/C=C/CN(C)C` [PELITINIB], for which the Kd was > 30 µM (inactive) in experiment [1], > 30 µM (inactive) at Ephrin type-B receptor 6, > 30 µM (inactive) in experiment [2] and 0.042 µM (active) in experiment [3].

With `CCCCCCCCCCCCCCCCCCOP(=O)([O-])OC1CC[N+](C)(C)CC1` [PERIFOSINE], the Kd (in experiment [1]; on Ephrin type-B receptor 6; in experiment [2]; in experiment [3]) was > 30 µM (inactive) each time.

As to `Cc1nc(Nc2n[nH]c3c2CN(C(=O)N[C@H](CN(C)C)c2ccccc2)C3(C)C)c2sccc2n1` [PF-03758309], the Kd in experiment [1] was > 30 µM (inactive); on Ephrin type-B receptor 6 it was > 30 µM (inactive); in experiment [2], 1.44 µM (active); in experiment [3], > 30 µM (inactive).

In the case of `Cc1cnc(NC(=O)Nc2cc(Br)c(C)cc2OC[C@@H]2CNCCO2)cn1` [RABUSERTIB], the Kd (in experiment [1]; at Ephrin type-B receptor 6; in experiment [2]; in experiment [3]) was > 30 µM (inactive) throughout.

As for `CO[C@H]1C[C@@H]2CC[C@@H](C)[C@@](O)(O2)C(=O)C(=O)N2CCCC[C@H]2C(=O)O[C@H]([C@H](C)C[C@@H]2CC[C@@H](OP(C)(C)=O)[C@H](OC)C2)CC(=O)[C@H](C)/C=C(\C)[C@@H](O)[C@@H](OC)C(=O)[C@H](C)C[C@H](C)/C=C/C=C/C=C/1C` [RIDAFOROLIMUS], the Kd (in experiment [1]; on Ephrin type-B receptor 6; in experiment [2]; in experiment [3]) was > 30 µM (inactive) each time.

Take `N#CC1(c2ccc(NC(=O)c3cccnc3NCc3ccncc3)cc2)CCCC1` [RIVOCERANIB]: the Kd (in experiment [1]; at Ephrin type-B receptor 6; in experiment [2]; in experiment [3]) was > 30 µM (inactive) each time.

With `O=c1[nH]ccc2cc(OC3CCNCC3)ccc12` [SAR-407899 FREE BASE], the Kd (in experiment [1]; at Ephrin type-B receptor 6; in experiment [2]; in experiment [3]) was > 30 µM (inactive) throughout.

With `Cn1cc(-c2cnn3c(N)c(Br)c([C@@H]4CCCNC4)nc23)cn1` [SCH-900776], the Kd (in experiment [1]; on Ephrin type-B receptor 6; in experiment [2]; in experiment [3]) was > 30 µM (inactive) each time.

For `CO[C@H]1C[C@@H]2CC[C@@H](C)[C@@](O)(O2)C(=O)C(=O)N2CCCC[C@H]2C(=O)O[C@H]([C@H](C)C[C@@H]2CC[C@@H](O)[C@H](OC)C2)CC(=O)[C@H](C)/C=C(\C)[C@@H](O)[C@@H](OC)C(=O)[C@H](C)C[C@H](C)/C=C/C=C/C=C/1C` [SIROLIMUS], the Kd (in experiment [1]; on Ephrin type-B receptor 6; in experiment [2]; in experiment [3]) was > 30 µM (inactive) in each case.

Turning to `CO[C@H]1C[C@@H]2CC[C@@H](C)[C@@](O)(O2)C(=O)C(=O)N2CCCC[C@H]2C(=O)O[C@H]([C@H](C)C[C@@H]2CC[C@@H](OC(=O)C(C)(CO)CO)[C@H](OC)C2)CC(=O)[C@H](C)/C=C(\C)[C@@H](O)[C@@H](OC)C(=O)[C@H](C)C[C@H](C)/C=C/C=C/C=C/1C` [TEMSIROLIMUS], the Kd (in experiment [1]; on Ephrin type-B receptor 6; in experiment [2]; in experiment [3]) was > 30 µM (inactive) each time.

As to `COc1cc2c(Nc3ccc(Cl)c(Cl)c3F)ncnc2cc1OC[C@@H]1C[C@@H]2CN(C)C[C@@H]2C1` [TESEVATINIB], the Kd in experiment [1] is 1.52 µM (active); at Ephrin type-B receptor 6, 0.259 µM; in experiment [2], > 30 µM (inactive); in experiment [3], 0.908 µM (active).

For `O=C(Cc1ccc(-c2ccc(OCCN3CCOCC3)cc2)cn1)NCc1ccccc1` [TIRBANIBULIN], the Kd (in experiment [1]; at Ephrin type-B receptor 6; in experiment [2]; in experiment [3]) was > 30 µM (inactive) each time.
